This note sets out measurements from article PMC9133015 (Nature Communications, 2022).

What all share (assay): Kinase inhibitor specificity profiling (Reaction Biology Corporation)
What all share (format): biochemical
Holding throughout (set-up): % Enzyme Activity (relative to DMSO controls): concentration or dose not given beside the values

Test [1] has as its target T1, panel of 370 protein kinases (Homo sapiens, UniProt Q96KB5).
T1 construct: purchased Reaction Biology Corporation (assay service)
Particulars: 2 h, kinase PBK/TOPK; read-out: % Enzyme Activity (relative to DMSO controls).

For test [2], the target named is T2, panel of 370 protein kinases (Homo sapiens, UniProt P00519).
T2 construct: purchased Reaction Biology Corporation (assay service)
Conditions: 2 h, kinase ABL1; read-out: % Enzyme Activity (relative to DMSO controls).

For test [3], the target named is T3, panel of 370 protein kinases (Homo sapiens, UniProt O14757).
T3 construct: purchased Reaction Biology Corporation (assay service)
Particulars: kinase CHK1.

The target of test [4] is T4, panel of 370 protein kinases (Homo sapiens, UniProt O00444).
T4 construct: purchased Reaction Biology Corporation (assay service)
Particulars: 2 h, kinase PLK4/SAK; read-out: % Enzyme Activity (relative to DMSO controls).

The target in test [5] is T5, panel of 370 protein kinases (Homo sapiens, UniProt P35916).
T5 construct: purchased Reaction Biology Corporation (assay service)
Particulars: 2 h, kinase FLT4/VEGFR3; read-out: % Enzyme Activity (relative to DMSO controls).

In test [6] the target is T6, panel of 370 protein kinases (Homo sapiens, UniProt O43293).
T6 construct: purchased Reaction Biology Corporation (assay service)
Conditions: 2 h, kinase ZIPK/DAPK3; read-out: % Enzyme Activity (relative to DMSO controls).

Test [7] deals with T7, panel of 370 protein kinases (Homo sapiens, UniProt P48729).
T7 construct: purchased Reaction Biology Corporation (assay service)
Conditions: 2 h, kinase CK1a1; read-out: % Enzyme Activity (relative to DMSO controls).

For test [8], the target named is T8, panel of 370 protein kinases (Homo sapiens, UniProt P53355).
T8 construct: purchased Reaction Biology Corporation (assay service)
Conditions: 2 h, kinase DAPK1; read-out: % Enzyme Activity (relative to DMSO controls).

For test [9], the target named is T9, panel of 370 protein kinases (Homo sapiens, UniProt Q13177).
T9 construct: purchased Reaction Biology Corporation (assay service)
Conditions: 2 h, kinase PAK2; read-out: % Enzyme Activity (relative to DMSO controls).

The target of test [10] is T10, panel of 370 protein kinases (Homo sapiens, UniProt P04629).
T10 construct: purchased Reaction Biology Corporation (assay service)
Particulars: 2 h, kinase TRKA; read-out: % Enzyme Activity (relative to DMSO controls).

Test [11] deals with T11, panel of 370 protein kinases (Homo sapiens, UniProt P31749).
T11 construct: purchased Reaction Biology Corporation (assay service)
Particulars: 2 h, kinase AKT1; read-out: % Enzyme Activity (relative to DMSO controls).

Test [12] concerns the target T12, panel of 370 protein kinases (Homo sapiens, UniProt Q09013).
T12 construct: purchased Reaction Biology Corporation (assay service)
Conditions: 2 h, kinase DMPK; read-out: % Enzyme Activity (relative to DMSO controls).

Test [13] has as its target T13, panel of 370 protein kinases (Homo sapiens, UniProt O95382).
T13 construct: purchased Reaction Biology Corporation (assay service)
Conditions: 2 h, kinase MEKK6; read-out: % Enzyme Activity (relative to DMSO controls).

Test [14] has as its target T14, panel of 370 protein kinases (Homo sapiens, UniProt Q9UK32).
T14 construct: purchased Reaction Biology Corporation (assay service)
Particulars: kinase RSK4.

The target in test [15] is T15, panel of 370 protein kinases (Homo sapiens, UniProt Q8TDC3).
T15 construct: purchased Reaction Biology Corporation (assay service)
Conditions: 2 h, kinase BRSK1; read-out: % Enzyme Activity (relative to DMSO controls).

Test [16] concerns the target T16, panel of 370 protein kinases (Homo sapiens, UniProt P24723).
T16 construct: purchased Reaction Biology Corporation (assay service)
Particulars: 2 h, kinase PKCeta; read-out: % Enzyme Activity (relative to DMSO controls).

Test [17] deals with T17, panel of 370 protein kinases (Homo sapiens, UniProt P30291).
T17 construct: purchased Reaction Biology Corporation (assay service)
Conditions: 2 h, kinase WEE1; read-out: % Enzyme Activity (relative to DMSO controls).

The target in test [18] is T18, panel of 370 protein kinases (Homo sapiens, UniProt Q96GX5).
T18 construct: purchased Reaction Biology Corporation (assay service)
Particulars: kinase MASTL.

For test [19], the target named is T19, panel of 370 protein kinases (Homo sapiens, UniProt P42680).
T19 construct: purchased Reaction Biology Corporation (assay service)
Conditions: 2 h, kinase TEC; read-out: % Enzyme Activity (relative to DMSO controls).

For test [20], the target named is T20, panel of 370 protein kinases (Homo sapiens, UniProt Q16832).
T20 construct: purchased Reaction Biology Corporation (assay service)
Conditions: 2 h, kinase DDR2; read-out: % Enzyme Activity (relative to DMSO controls).

Test [21] deals with T21, panel of 370 protein kinases (Homo sapiens, UniProt O75582).
T21 construct: purchased Reaction Biology Corporation (assay service)
Conditions: 2 h, kinase MSK1/RPS6KA5; read-out: % Enzyme Activity (relative to DMSO controls).

The target of test [22] is T22, panel of 370 protein kinases (Homo sapiens, UniProt Q00537).
T22 construct: purchased Reaction Biology Corporation (assay service)
Particulars: 2 h, kinase CDK17/cyclin Y (PCTK2); read-out: % Enzyme Activity (relative to DMSO controls).

Where “and” joins values, the source holds several entries; their conditions need not be identical. Equal entries are not always repeated.

T14 sequence (Q9UK32 whole entry): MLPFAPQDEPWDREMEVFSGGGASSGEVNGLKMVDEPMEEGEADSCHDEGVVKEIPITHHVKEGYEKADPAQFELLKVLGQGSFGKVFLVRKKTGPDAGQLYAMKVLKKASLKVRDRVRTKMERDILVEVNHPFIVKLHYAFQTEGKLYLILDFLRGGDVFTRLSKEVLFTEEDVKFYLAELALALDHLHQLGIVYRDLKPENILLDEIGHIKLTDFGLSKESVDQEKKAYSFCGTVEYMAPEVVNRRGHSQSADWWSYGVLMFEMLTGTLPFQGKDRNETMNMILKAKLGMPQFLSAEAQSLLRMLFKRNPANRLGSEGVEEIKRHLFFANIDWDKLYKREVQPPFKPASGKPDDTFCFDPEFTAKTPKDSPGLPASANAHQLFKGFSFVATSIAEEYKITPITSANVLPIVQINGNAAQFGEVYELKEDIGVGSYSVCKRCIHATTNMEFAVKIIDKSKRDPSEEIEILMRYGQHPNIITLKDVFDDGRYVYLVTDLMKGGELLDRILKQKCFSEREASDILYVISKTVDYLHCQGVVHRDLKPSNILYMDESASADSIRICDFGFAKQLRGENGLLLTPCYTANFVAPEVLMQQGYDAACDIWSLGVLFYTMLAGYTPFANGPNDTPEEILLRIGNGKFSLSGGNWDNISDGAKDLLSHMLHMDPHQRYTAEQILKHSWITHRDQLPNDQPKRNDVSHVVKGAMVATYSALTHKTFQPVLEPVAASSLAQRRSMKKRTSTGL
T3 sequence (O14757 whole entry): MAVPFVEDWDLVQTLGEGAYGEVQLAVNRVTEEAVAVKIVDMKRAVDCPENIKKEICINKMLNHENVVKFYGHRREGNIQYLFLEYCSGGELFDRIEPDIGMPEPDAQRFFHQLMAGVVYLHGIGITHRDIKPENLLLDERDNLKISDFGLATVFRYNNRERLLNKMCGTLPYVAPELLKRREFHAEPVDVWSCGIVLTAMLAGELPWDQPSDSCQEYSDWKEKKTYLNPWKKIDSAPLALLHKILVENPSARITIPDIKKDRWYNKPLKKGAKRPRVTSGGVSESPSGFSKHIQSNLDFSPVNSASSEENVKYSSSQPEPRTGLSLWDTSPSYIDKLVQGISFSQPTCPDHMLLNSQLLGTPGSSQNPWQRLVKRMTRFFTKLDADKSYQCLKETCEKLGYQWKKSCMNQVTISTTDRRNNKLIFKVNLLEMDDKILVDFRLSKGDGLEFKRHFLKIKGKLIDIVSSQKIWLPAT
T18 sequence (Q96GX5 whole entry): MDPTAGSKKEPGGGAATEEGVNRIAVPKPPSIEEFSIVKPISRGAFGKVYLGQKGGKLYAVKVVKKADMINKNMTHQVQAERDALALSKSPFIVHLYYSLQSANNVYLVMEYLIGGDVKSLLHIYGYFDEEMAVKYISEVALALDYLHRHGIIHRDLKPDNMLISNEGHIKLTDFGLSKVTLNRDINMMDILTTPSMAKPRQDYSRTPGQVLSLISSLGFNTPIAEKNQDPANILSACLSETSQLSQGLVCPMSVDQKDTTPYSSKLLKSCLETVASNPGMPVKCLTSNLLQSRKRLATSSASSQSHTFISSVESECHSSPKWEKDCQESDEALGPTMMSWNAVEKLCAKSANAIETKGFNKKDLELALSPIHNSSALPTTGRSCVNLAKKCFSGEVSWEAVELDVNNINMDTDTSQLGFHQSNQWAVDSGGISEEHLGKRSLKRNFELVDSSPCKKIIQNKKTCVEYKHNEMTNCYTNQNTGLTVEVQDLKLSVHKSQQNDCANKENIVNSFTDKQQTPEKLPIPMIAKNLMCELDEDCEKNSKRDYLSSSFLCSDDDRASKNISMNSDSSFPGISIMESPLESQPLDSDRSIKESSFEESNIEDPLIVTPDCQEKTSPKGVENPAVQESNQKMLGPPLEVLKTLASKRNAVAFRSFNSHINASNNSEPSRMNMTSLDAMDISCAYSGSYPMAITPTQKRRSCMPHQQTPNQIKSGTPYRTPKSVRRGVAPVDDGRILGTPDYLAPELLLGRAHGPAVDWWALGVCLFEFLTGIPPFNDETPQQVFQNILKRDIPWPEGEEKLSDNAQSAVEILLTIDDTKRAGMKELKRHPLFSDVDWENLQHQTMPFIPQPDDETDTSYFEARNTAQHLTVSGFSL
T7 sequence (P48729 whole entry): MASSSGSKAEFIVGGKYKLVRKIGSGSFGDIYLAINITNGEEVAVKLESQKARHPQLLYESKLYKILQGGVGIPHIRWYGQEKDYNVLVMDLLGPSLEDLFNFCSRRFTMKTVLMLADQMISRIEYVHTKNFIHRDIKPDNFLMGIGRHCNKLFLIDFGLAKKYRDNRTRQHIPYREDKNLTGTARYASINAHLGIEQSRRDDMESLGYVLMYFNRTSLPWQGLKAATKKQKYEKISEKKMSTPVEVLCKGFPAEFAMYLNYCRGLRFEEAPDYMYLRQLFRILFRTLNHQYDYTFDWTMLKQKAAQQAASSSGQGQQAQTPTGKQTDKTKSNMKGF
T5 sequence (P35916 25-1363): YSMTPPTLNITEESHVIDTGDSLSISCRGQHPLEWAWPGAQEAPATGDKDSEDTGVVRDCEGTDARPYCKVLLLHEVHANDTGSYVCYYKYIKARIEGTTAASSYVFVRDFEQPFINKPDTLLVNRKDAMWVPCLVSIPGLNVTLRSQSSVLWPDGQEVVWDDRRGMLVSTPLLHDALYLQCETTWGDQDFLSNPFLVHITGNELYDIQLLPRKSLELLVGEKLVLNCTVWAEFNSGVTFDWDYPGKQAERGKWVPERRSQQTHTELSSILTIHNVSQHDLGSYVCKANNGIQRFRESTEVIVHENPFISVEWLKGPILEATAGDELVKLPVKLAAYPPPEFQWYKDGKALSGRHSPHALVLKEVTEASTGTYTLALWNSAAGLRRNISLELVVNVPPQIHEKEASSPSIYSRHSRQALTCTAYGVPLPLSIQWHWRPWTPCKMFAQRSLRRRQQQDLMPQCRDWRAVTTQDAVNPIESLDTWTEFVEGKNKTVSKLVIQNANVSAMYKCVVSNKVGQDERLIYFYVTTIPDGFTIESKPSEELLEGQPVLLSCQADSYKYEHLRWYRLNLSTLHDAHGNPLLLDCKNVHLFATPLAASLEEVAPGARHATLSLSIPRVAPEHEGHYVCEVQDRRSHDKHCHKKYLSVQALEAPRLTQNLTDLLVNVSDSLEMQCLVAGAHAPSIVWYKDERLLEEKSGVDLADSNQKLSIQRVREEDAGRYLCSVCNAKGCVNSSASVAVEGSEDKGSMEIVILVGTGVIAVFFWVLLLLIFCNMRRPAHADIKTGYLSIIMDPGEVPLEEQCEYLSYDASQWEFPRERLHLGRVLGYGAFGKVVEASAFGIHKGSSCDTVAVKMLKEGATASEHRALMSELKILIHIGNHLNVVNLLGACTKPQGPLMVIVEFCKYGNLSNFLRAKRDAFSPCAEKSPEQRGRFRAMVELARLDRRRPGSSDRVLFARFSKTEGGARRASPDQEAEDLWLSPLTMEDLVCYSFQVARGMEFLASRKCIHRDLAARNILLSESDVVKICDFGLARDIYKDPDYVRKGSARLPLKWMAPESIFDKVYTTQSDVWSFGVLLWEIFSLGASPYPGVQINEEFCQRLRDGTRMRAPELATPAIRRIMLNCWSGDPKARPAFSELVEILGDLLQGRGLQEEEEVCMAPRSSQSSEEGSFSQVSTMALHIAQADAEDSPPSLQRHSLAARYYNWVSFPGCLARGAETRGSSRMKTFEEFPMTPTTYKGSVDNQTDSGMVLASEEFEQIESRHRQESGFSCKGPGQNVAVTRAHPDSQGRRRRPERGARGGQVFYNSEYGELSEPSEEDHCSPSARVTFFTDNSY
T15 sequence (Q8TDC3 whole entry): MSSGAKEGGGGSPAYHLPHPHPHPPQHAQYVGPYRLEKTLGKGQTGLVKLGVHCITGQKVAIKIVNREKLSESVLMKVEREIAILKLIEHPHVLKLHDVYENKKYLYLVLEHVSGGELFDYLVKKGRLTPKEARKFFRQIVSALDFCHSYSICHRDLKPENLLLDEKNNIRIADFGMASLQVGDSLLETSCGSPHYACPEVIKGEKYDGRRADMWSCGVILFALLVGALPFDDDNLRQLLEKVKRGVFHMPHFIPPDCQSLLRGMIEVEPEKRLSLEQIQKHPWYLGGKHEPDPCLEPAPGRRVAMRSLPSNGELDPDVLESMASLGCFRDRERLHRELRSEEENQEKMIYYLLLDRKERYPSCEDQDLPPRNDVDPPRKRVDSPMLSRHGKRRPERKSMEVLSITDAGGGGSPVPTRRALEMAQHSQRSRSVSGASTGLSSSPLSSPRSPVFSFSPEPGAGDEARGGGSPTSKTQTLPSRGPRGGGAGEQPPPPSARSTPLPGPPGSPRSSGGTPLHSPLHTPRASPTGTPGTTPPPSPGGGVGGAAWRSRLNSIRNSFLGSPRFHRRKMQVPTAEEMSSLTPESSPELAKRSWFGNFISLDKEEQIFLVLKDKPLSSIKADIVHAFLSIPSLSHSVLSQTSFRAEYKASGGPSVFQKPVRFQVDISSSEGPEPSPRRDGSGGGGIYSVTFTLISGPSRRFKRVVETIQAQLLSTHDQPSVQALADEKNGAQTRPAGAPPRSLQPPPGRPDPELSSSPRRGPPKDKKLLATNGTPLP
T11 sequence (P31749 whole entry): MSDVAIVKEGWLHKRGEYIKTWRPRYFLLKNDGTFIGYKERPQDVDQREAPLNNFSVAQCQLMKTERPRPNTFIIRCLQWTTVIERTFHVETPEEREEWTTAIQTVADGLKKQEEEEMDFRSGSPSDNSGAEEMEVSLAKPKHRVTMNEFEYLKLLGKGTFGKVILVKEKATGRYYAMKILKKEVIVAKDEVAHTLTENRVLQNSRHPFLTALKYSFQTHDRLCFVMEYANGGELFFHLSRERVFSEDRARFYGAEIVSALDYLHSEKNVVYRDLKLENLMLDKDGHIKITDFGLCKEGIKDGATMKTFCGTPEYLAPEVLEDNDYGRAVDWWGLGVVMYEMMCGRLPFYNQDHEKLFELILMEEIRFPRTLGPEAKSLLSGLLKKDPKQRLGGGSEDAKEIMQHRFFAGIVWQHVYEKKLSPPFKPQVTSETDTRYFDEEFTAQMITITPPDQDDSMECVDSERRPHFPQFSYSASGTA

`CCN1CCN(C(=O)c2ccc(Nc3ncc(F)c(-c4ccc5nc(N(C)C)sc5c4)n3)nc2)CC1` [YK-2-69]: the remaining activity at 1 µM stood at 108% in test [1]; 85% in [2]; 72.6% in [4]; 75.2% in test [5]; 67.1% in test [6]; 82% in test [7]. Besides, the remaining activity at 1 µM in test [8] came out at 62.2%; in test [9], 94.7%; in test [10], 104%; in test [11], 98.3%; in test [12], 95.8%; in [13], 111%. For the same compound, the remaining activity at 1 µM was 94% in test [15]; 77% in [16]; 98.5% in [17]; 107% in test [19]; 103% in test [20]; 115% in test [21]. For the same compound, the remaining activity at 1 µM in test [22] is 99.2%. For the same compound, the “% Enzyme Activity (relative to DMSO controls)” value in [3] was 90.61% and 88.71%; in test [14], 87.21% and 86.27%; in test [18], 100.08% and 99.24%.
